Laboratory results taken from patent publication US10195201B2, “Heteroaryl-pyrimidinone compounds as PDE2 inhibitors” (Merck Sharp & Dohme Corp., priority 2015, dated 2019).
Read-outs that look alike come from different tables or passages of the source.

Assays:
[1] = molecular target: Rhesus PDE2A3 (Macaca mulatta, UniProt B3VTJ2); experiment: PDE2 fluorescence polarization (IMAP FP) inhibition assay, rhesus enzyme; type: biochemical, rhesus macaque
Experimental: (§1) The activity of the compounds in accordance with the present invention as PDE2 inhibitors may be readily determined using a fluorescence polarization (FP) methodology (Huang, W., et al., J. Biomol Screen, 2002, 7: 215).
In a typical experiment the PDE2 inhibitory activity of the compounds of the present invention was determined in accordance with the following experimental method. Rhesus PDE2A3 was amplified from rhesus macaque brain cDNA (Biochain Institute, Hayward, Calif.) using primers based on human PDE2A sequence (accession NM_002599.3) where the forward primer containing a Kozak consensus was 5′-[…]-3′ and the reverse primer was 5′-[…]-3′. Amplification with Easy-A High-Fidelity PCR cloning enzyme (Stratagene, La Jolla, Calif.) was 95° C. for 2 minutes followed by thirty three cycles of 95° C. for 40 seconds, 52° C. for 30 seconds, and 72° C. for 2 minutes 48 seconds. Final extension was 72° C. for 7 minutes. The PCR product was TA cloned into pcDNA3.3-TOPO (Invitrogen, Carlsbad, Calif.) according to standard protocol. A consensus sequence was developed from multiple clones and then deposited into GenBank (EU812167). AD293 cells (Stratagene, La Jolla, Calif.) with 70-80% confluency were transiently transfected with rhesus PDE2A3/pcDNA3.3-TOPO using Lipofectamine 2000 according to manufacturer specifications (Invitrogen, Carlsbad, Calif.). Cells were harvested 48 hours post-transfection and lysed by sonication (setting 3, 10×5 sec pulses) in a buffer containing 20 mM HEPES pH 7.4, 1 mM EDTA and Complete Protease Inhibitor Cocktail Tablets (Roche, Indianapolis, Ind.). Lysate was collected by centrifugation at 75,000×g for 20 minutes at 4° C. and supernatant utilized for evaluation of PDE2 activity. The fluorescence polarization assay for cyclic nucleotide phosphodiesterases was performed using an IMAP® FP kit supplied by Molecular Devices, Sunnyvale, Calif. (product # R8139). […] Assays were performed at room temperature in 384-well microtiter plates with an incubation volume of 20.2 μL. Solutions of test compounds were prepared in DMSO and serially diluted with DMSO to yield 8 μL of each of 10 solutions differing by 3-fold in concentration, at 32 serial dilutions per plate. […] 0% of inhibition is determined by using DMSO (1% final concentrations).
A Labcyte Echo 555 (Labcyte, Sunnyvale, Calif.) is used to dispense 200 nL from each well of the titration plate to the 384 well assay plate. Ten microliters of a solution of enzyme (1/2000 final dilution from aliquots; sufficient to produce 20% substrate conversion) was added to the assay plate. Next 10 uL of a separate solution of the substrate FAM-labeled cAMP (50 nM final concentration product # R7506 from Molecular Devices) and the activator cGMP (1 uM final concentration), prepared in the assay buffer (10 mM Tris HCl, pH 7.2, 10 mM MgCl2, 0.05% NaN3 0.01% Tween-20, and 1 mM DTT) was added to the assay plate and shaken to mix. The reaction is allowed to proceed at room temperature for 60 minutes. A binding solution is then made from the kit components, comprised of 80% Solution A, 20% Solution B and binding reagent at a volume of 1/600 the total binding solution. The enzymatic reaction is stopped by addition of 60 μL of the binding solution to each well of the assay plates and the plates are sealed and shaken for 30 seconds. The plate was incubated at room temperature for at least one hour prior to determining the fluorescence polarization (FP). The parallel and perpendicular fluorescence of each well of the plate was measured using a Tecan Genios Pro plate reader (Tecan, Switzerland) or Perkin Elmer EnVision™ plate reader (Waltham, Mass.). Fluorescence polarization (mP) was calculated from the parallel (S) and perpendicular (P) fluorescence of each sample well and the analogous values for the median control well, containing only substrate (So and Po), using the following equation: Polarization (mP)=1000*(S/So−P/Po)/(S/So+P/Po).

[2] = molecular target: human PDE2A1 (Homo sapiens (Human), UniProt O00408); experiment: PDE2 fluorescence polarization (IMAP FP) inhibition assay, human enzyme; type: biochemical
Experimental: as §1
Selectivity for PDE2, as compared to other PDE families, was assessed using the IMAPR technology. Human PDE10A2 enzyme was prepared from cytosolic fractions of transiently transfected HEK cells. All other PDE's were GST Tag human enzyme expressed in insect cells and were obtained from BPS Bioscience (San Diego, Calif.): PDE1A (Cat#60010), human PDE2A1(Cat#60020), PDE3A (Cat#60030), PDE4A1A (Cat#60040), PDE5A1 (Cat#60050), PDE6C (Cat#60060), PDE7A (Cat#60070), PDE8A1 (Cat#60080), PDE9A2 (Cat#60090), PDE11A4 (Cat#60110).
Assays for PDE 1 through 11 were performed in parallel at room temperature in 384-well microtiter plates with an incubation volume of 20.2 μL. Solutions of test compounds were prepared in DMSO and serially diluted with DMSO to yield 30 μL of each of ten solutions differing by 3-fold in concentration, at 32 serial dilutions per plate. […] A Labcyte POD 810 (Labcyte, Sunnyvale, Calif.) was used to dispense 200 nL from each well of the titration plate to make eleven copies of the assay plate for each titration, one copy for each PDE enzyme. A solution of each enzyme (dilution from aliquots, sufficient to produce 20% substrate conversion) and a separate solution of FAM-labeled cAMP or FAM-labeled cGMP from Molecular Devices (Sunnyvale, Calif., product # R7506 or cGMP#R7508), at a final concentration of 50 nM were made in the assay buffer (10 mM Tris HCl, pH 7.2, 10 mM MgCl2, 0.05% NaN3 0.01% Tween-20, and 1 mM DTT). Note that the substrate for PDE2 is 50 nM FAM cAMP containing 1000 nM of cGMP. The enzyme and the substrate were then added to the assay plates in two consecutive additions of 10 μL and then shaken to mix. The reaction was allowed to proceed at room temperature for 60 minutes. A binding solution was then made from the kit components, comprised of 80% Solution A, 20% Solution B and binding reagent at a volume of 1/600 the total binding solution. The enzymatic reaction was stopped by addition of 60 μL of the binding solution to each well of the assay plate. The plates were sealed and shaken for 10 seconds. The plates were incubated at room temperature for one hour, then the parallel and perpendicular fluorescence was measured using a Tecan Genios Pro plate reader (Tecan, Switzerland). The apparent inhibition constants for the compounds against all 11 PDE's was determined from the parallel and perpendicular fluorescent readings as described for PDE10 FP assay using the following apparent KM values for each enzyme and substrate combination: PDE1A (FAM cGMP) 70 nM, human PDE2A1 (FAM cAMP) 10,000 nM, PDE3A (FAM cAMP) 50 nM, PDE4A1A (FAM cAMP) 1500 nM, PDE5A1 (FAM cGMP) 400 nM, PDE6C (FAM cGMP) 700 nM, PDE7A (FAM cAMP) 150 nM, PDE8A1 (FAM cAMP) 50 nM, PDE9A2 (FAM cGMP) 60 nM, […] (FAM cAMP) 150 nM, PDE11A4 (FAM cAMP) 1000 nM. The intrinsic PDE2 inhibitory activity of a compound which may be used in accordance with the present invention may be determined by these assays. […]

[3] = LabA, read-out: rhPDE2 Ki (nM) LabA
[4] = LabA, read-out: hPDE2 Ki (nM) LabA
[5] = LabB, read-out: rhPDE2 Ki (nM) LabB
[6] = LabB, read-out: hPDE2 Ki (nM) LabB

human PDE2A1, sequence (O00408 other isoform, or with tags, fused parts or gaps): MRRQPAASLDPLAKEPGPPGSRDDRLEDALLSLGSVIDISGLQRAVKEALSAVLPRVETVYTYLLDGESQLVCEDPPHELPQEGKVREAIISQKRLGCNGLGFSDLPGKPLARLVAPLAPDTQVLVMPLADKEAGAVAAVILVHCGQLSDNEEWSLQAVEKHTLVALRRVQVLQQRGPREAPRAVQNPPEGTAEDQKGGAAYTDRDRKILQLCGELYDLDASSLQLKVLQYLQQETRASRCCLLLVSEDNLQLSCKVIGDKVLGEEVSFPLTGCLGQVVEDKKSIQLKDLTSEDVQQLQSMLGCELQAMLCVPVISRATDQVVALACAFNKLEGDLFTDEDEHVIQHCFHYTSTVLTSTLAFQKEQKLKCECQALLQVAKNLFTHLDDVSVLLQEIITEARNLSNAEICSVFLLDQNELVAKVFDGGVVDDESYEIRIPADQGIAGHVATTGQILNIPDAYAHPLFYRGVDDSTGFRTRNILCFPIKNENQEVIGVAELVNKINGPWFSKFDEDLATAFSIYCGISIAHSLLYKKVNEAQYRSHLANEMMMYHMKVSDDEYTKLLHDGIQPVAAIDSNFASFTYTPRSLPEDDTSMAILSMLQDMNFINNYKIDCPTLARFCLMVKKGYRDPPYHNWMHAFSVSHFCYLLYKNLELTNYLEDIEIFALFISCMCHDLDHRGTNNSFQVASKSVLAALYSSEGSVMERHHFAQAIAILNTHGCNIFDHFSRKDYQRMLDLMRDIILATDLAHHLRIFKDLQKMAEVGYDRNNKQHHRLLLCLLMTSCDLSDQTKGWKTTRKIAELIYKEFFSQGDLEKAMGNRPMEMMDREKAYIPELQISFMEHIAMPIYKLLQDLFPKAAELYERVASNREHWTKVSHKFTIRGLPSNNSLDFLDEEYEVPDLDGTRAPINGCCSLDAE
Rhesus PDE2A3, sequence (B3VTJ2 1-941): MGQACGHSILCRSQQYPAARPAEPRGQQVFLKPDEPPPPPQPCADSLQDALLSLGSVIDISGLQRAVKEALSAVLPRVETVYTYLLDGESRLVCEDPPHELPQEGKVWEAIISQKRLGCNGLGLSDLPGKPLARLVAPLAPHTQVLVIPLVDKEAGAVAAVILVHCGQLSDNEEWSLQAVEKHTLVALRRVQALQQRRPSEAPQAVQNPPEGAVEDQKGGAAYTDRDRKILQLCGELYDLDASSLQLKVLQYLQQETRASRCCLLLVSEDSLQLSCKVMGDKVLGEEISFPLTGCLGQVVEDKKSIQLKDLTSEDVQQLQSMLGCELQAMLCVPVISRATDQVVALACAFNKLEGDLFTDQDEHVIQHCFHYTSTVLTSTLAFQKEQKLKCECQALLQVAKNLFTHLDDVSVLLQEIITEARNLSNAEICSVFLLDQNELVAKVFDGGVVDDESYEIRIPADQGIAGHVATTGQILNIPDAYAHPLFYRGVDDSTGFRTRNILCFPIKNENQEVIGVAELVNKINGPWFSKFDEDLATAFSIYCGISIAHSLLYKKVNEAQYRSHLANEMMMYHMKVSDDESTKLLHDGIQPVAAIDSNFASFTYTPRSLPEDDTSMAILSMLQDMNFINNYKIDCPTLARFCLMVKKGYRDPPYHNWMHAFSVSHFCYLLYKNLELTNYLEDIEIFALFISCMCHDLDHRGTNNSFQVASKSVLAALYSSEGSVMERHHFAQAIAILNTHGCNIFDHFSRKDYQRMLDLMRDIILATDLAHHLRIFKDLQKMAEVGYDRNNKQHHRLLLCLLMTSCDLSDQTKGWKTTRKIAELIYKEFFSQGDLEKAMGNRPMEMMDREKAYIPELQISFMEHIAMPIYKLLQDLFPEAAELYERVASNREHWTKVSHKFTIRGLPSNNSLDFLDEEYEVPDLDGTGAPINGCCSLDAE

Row | Structure (SMILES) | Ki [1, 3] | Ki [2, 4] | Ki [1, 5] | Ki [2, 6]
1 | Cc1nc(-c2cn(C(C)c3ccc(C(F)(F)F)cc3)cn2)cc(=O)[nH]1 (single isomer, unassigned) [Example 17, (R)- or (S)-2-methyl-6-(1-(1-(4-(trifluoro-methyl)phenyl)ethyl)-1H-imidazol-4-yl) pyrimidin-4 (3H)-one] | 106 nM | 76 nM |  | 
2 | COc1ccc(Cc2nc(-c3cn(C(C)c4ccc(C(F)(F)F)cc4F)cn3)cc(=O)[nH]2)cc1OC (single isomer, unassigned) [Example 18, (R)- or (S)-2-(3,4-dimethoxy-benzyl)-6-(1-(1-(2-fluoro-4-(trifluoromethyl)phenyl)ethyl)-1H-imidazol-4-yl)pyrimidin-4(3H)-one] | 2.3 nM | 1.4 nM |  | 
3 | Cc1nc(-c2cn([C@H](C)c3ccc(C(F)(F)F)cc3F)cn2)cc(=O)[nH]1 (single isomer, unassigned) [Example 15] | 24 nM | 21 nM | 46 nM | 
4 | Cc1nc(-c2nnc([C@H](C)c3ccc(C(F)(F)F)cc3)s2)cc(=O)[nH]1 (single isomer, unassigned) [Example 7] | 21 nM | 13 nM | 57 nM | 62 nM
5 | Cc1nc(-c2nnc([C@H](C)c3ccc(C(F)(F)F)cc3)s2)cc(=O)[nH]1 (single isomer, unassigned) [Example 6] | 10 nM | 6 nM | 13 nM | 12 nM
6 | Cc1nc(-c2nnc([C@H](C)c3ccc(C(F)(F)F)cc3)o2)cc(=O)[nH]1 (single isomer, unassigned) [Example 9] | 86 nM | 79 nM | 159 nM | 
7 | Cc1nc(-c2nnc([C@H](C)c3ccc(C(F)(F)F)cc3F)s2)cc(=O)[nH]1 (single isomer, unassigned) [Example 5] |  |  | 19 nM | 18 nM
8 | Cc1nc(-c2ncc(C(C)c3ccc(C(F)(F)F)cc3)s2)cc(=O)[nH]1 (centres unmarked) [Example 1, 2-Methyl-6-(5-(1-(4-(trifluoromethyl)phenyl)ethyl)thiazol-2-yl)pyrimidin-4(3H)-one] | 96 nM | 60 nM | 481 nM | 
